# Measurements: publication PMC9090415, “Discovery of small molecule inhibitors of Plasmodium falciparum apicoplast DNA polymerase” (Journal of Enzyme Inhibition and Medicinal Chemistry, 2022)
# Target: P. falciparum apicoplast DNA polymerase (Pf-apPOL) (Plasmodium falciparum, UniProt Q8ILY1)
# Test: Fluorescence-based high-throughput DNA polymerase assay (molecular beacon), primary screen and dose-response;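 for % inhibition Apol 40': compound concentration given in µM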
# Format: biochemical
# Settings: for DNA Pol: 90 min, 10 µM
# Summary of the method: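 Single-point screening used 10 µM compound with 20 nM polymerase, 20 nM hairpin substrate and 6 µM dNTPs for 90 min at 25 °C. Confirmatory titrations (2.5–80 µM) followed fluorescence at three times, and IC50 was derived from a fit including a cooperativity term n.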
# [1] = 'DNA Pol' of the 186 hits list (primary screen value)
# Chain of P. falciparum apicoplast DNA polymerase (Pf-apPOL) (Q8ILY1 entry or part of it): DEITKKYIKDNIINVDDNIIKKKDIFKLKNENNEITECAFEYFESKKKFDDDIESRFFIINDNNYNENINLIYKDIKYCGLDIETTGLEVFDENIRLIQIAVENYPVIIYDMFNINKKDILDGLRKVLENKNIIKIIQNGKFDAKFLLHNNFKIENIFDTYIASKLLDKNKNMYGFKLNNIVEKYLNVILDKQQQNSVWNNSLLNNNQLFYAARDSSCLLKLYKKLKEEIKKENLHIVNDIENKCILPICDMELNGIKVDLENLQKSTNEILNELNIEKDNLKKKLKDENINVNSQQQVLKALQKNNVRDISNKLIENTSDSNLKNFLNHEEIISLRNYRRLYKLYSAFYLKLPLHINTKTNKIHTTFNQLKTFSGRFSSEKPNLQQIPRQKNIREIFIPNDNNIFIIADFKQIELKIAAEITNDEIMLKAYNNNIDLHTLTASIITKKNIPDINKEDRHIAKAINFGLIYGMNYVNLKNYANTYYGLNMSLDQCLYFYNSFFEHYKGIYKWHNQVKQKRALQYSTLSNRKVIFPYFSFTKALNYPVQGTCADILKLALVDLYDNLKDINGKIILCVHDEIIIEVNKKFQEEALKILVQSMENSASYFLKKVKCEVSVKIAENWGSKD
smiles,measurement,setting,value
"CCCCC(=O)N1CCc2c(nc3cc(-c4ccccc4Cl)[nH]n3c2=O)C1 [Molecule 37, CCCCC(=O)N1CCc2c(C1)nc1n(c2=O)[nH]c(c1)c1ccccc1Cl]",DNA Pol,"""DNA Pol"" of the 186 hits list (screen value)",43
same,% inhibition Apo pol 10',"DRC-1, concentration 2.5",9.306%
same,% inhibition Apo pol 10',"DRC-1, concentration 5",24.2361%
same,% inhibition Apo pol 10',"DRC-1, concentration 10",50.6318%
same,% inhibition Apo pol 10',"DRC-1, concentration 20",65.8539%
same,% inhibition Apo pol 10',"DRC-1, concentration 40",79.9976%
same,% inhibition Apo pol 10',"DRC-1, concentration 80",82.2007%
same,% inhibition Apol 90',"DRC-1, concentration 2.5",2.3506%
same,% inhibition Apol 90',"DRC-1, concentration 5",13.0098%
same,% inhibition Apol 90',"DRC-1, concentration 10",36.7881%
same,% inhibition Apol 90',"DRC-1, concentration 20",53.1884%
same,% inhibition Apol 90',"DRC-1, concentration 40",71.0429%
same,% inhibition Apol 90',"DRC-1, concentration 80",81.0911%
same,% inhibition apPOL 180',"DRC-1, concentration 2.5",-3.183%
same,% inhibition apPOL 180',"DRC-1, concentration 5",4.447%
same,% inhibition apPOL 180',"DRC-1, concentration 10",22.1273%
same,% inhibition apPOL 180',"DRC-1, concentration 20",36.1098%
same,% inhibition apPOL 180',"DRC-1, concentration 40",57.5163%
same,% inhibition apPOL 180',"DRC-1, concentration 80",72.7607%
same,% inhibition Apo pol 5',"DRC-2, concentration 2.5",11%
same,% inhibition Apo pol 5',"DRC-2, concentration 5",13%
same,% inhibition Apo pol 5',"DRC-2, concentration 10",29%
same,% inhibition Apo pol 5',"DRC-2, concentration 20",33%
same,% inhibition Apo pol 5',"DRC-2, concentration 40",46%
same,% inhibition Apo pol 5',"DRC-2, concentration 80",35%
same,% inhibition Apol 40',"DRC-2, concentration 2.5",13%
same,% inhibition Apol 40',"DRC-2, concentration 5",15%
same,% inhibition Apol 40',"DRC-2, concentration 10",33%
same,% inhibition Apol 40',"DRC-2, concentration 20",38%
same,% inhibition Apol 40',"DRC-2, concentration 40",62%
same,% inhibition Apol 40',"DRC-2, concentration 80",62%
same,% inhibition ApPOL 90',"DRC-2, concentration 2.5",12%
same,% inhibition ApPOL 90',"DRC-2, concentration 5",13%
same,% inhibition ApPOL 90',"DRC-2, concentration 10",30%
same,% inhibition ApPOL 90',"DRC-2, concentration 20",35%
same,% inhibition ApPOL 90',"DRC-2, concentration 40",63%
same,% inhibition ApPOL 90',"DRC-2, concentration 80",68%
same,% inhibition apPOL 180',"DRC-2, concentration 2.5",7%
same,% inhibition apPOL 180',"DRC-2, concentration 5",8.42%
same,% inhibition apPOL 180',"DRC-2, concentration 10",23%
same,% inhibition apPOL 180',"DRC-2, concentration 20",23%
same,% inhibition apPOL 180',"DRC-2, concentration 40",55%
same,% inhibition apPOL 180',"DRC-2, concentration 80",68%
same,DNA Pol,"primary screen value, DNA Pol",43
"Cc1ccccc1C(=O)N1CCc2c(nc3cc(-c4ccccc4)[nH]n3c2=O)C1 [Molecule 41, Cc1ccccc1C(=O)N1CCc2c(C1)nc1n(c2=O)[nH]c(c1)c1ccccc1]",DNA Pol,[1],47
same,DNA Pol,DNA Pol (primary screen value),47
same,% inhibition Apo pol 10',"DRC-1, concentration 2.5",6.184%
same,% inhibition Apo pol 10',"DRC-1, concentration 5",10.1754%
same,% inhibition Apo pol 10',"DRC-1, concentration 10",45.445%
same,% inhibition Apo pol 10',"DRC-1, concentration 20",74.5975%
same,% inhibition Apo pol 10',"DRC-1, concentration 40",80.8347%
same,% inhibition Apo pol 10',"DRC-1, concentration 80",67.5135%
same,% inhibition Apol 90',"DRC-1, concentration 2.5",1.828%
same,% inhibition Apol 90',"DRC-1, concentration 5",3.445%
same,% inhibition Apol 90',"DRC-1, concentration 10",31.8176%
same,% inhibition Apol 90',"DRC-1, concentration 20",59.5671%
same,% inhibition Apol 90',"DRC-1, concentration 40",74.5448%
same,% inhibition Apol 90',"DRC-1, concentration 80",71.589%
same,% inhibition apPOL 180',"DRC-1, concentration 2.5",-1.511%
same,% inhibition apPOL 180',"DRC-1, concentration 5",-3.248%
same,% inhibition apPOL 180',"DRC-1, concentration 10",20.9007%
same,% inhibition apPOL 180',"DRC-1, concentration 20",43.9765%
same,% inhibition apPOL 180',"DRC-1, concentration 40",64.8377%
same,% inhibition apPOL 180',"DRC-1, concentration 80",65.5415%
same,% inhibition Apo pol 5',"DRC-2, concentration 2.5",7%
same,% inhibition Apo pol 5',"DRC-2, concentration 5",8%
same,% inhibition Apo pol 5',"DRC-2, concentration 10",20%
same,% inhibition Apo pol 5',"DRC-2, concentration 20",17%
same,% inhibition Apo pol 5',"DRC-2, concentration 40",46%
same,% inhibition Apo pol 5',"DRC-2, concentration 80",29%
same,% inhibition Apol 40',"DRC-2, concentration 2.5",9%
same,% inhibition Apol 40',"DRC-2, concentration 5",5.58%
same,% inhibition Apol 40',"DRC-2, concentration 10",22%
same,% inhibition Apol 40',"DRC-2, concentration 20",18%
same,% inhibition Apol 40',"DRC-2, concentration 40",61%
same,% inhibition Apol 40',"DRC-2, concentration 80",54%
same,% inhibition ApPOL 90',"DRC-2, concentration 2.5",8%
same,% inhibition ApPOL 90',"DRC-2, concentration 5",5%
same,% inhibition ApPOL 90',"DRC-2, concentration 10",21%
same,% inhibition ApPOL 90',"DRC-2, concentration 20",17%
same,% inhibition ApPOL 90',"DRC-2, concentration 40",61%
same,% inhibition ApPOL 90',"DRC-2, concentration 80",59%
same,% inhibition apPOL 180',"DRC-2, concentration 2.5",4.5%
same,% inhibition apPOL 180',"DRC-2, concentration 5",1.21%
same,% inhibition apPOL 180',"DRC-2, concentration 10",16%
same,% inhibition apPOL 180',"DRC-2, concentration 20",9%
same,% inhibition apPOL 180',"DRC-2, concentration 40",55%
same,% inhibition apPOL 180',"DRC-2, concentration 80",58%
"O=C(Cn1ccc2c(=O)[nH]ccc21)Nc1cc(F)ccc1F [Molecule 42, O=C(Cn1ccc2c1cc[nH]c2=O)Nc1cc(F)ccc1F]",DNA Pol,[1],40
same,DNA Pol,DNA Pol (primary screen value),40
same,% inhibition Apo pol 10',"DRC-1, concentration 2.5",-0.6304%
same,% inhibition Apo pol 10',"DRC-1, concentration 5",13.4677%
same,% inhibition Apo pol 10',"DRC-1, concentration 10",49.4515%
same,% inhibition Apo pol 10',"DRC-1, concentration 20",62.1247%
same,% inhibition Apo pol 10',"DRC-1, concentration 40",77.421%
same,% inhibition Apo pol 10',"DRC-1, concentration 80",76.1541%
same,% inhibition Apol 90',"DRC-1, concentration 2.5",-3.25%
same,% inhibition Apol 90',"DRC-1, concentration 5",4.148%
same,% inhibition Apol 90',"DRC-1, concentration 10",35.5527%
same,% inhibition Apol 90',"DRC-1, concentration 20",52.2284%
same,% inhibition Apol 90',"DRC-1, concentration 40",71.4461%
same,% inhibition Apol 90',"DRC-1, concentration 80",77.7263%
same,% inhibition apPOL 180',"DRC-1, concentration 2.5",-7.978%
same,% inhibition apPOL 180',"DRC-1, concentration 5",-3.837%
same,% inhibition apPOL 180',"DRC-1, concentration 10",18.2291%
same,% inhibition apPOL 180',"DRC-1, concentration 20",34.5428%
same,% inhibition apPOL 180',"DRC-1, concentration 40",57.1907%
same,% inhibition apPOL 180',"DRC-1, concentration 80",71.3539%
same,% inhibition Apo pol 5',"DRC-2, concentration 2.5",3.65%
same,% inhibition Apo pol 5',"DRC-2, concentration 5",11%
same,% inhibition Apo pol 5',"DRC-2, concentration 10",31%
same,% inhibition Apo pol 5',"DRC-2, concentration 20",40%
same,% inhibition Apo pol 5',"DRC-2, concentration 40",37%
same,% inhibition Apo pol 5',"DRC-2, concentration 80",27%
same,% inhibition Apol 40',"DRC-2, concentration 2.5",2.11%
same,% inhibition Apol 40',"DRC-2, concentration 5",13%
same,% inhibition Apol 40',"DRC-2, concentration 10",36%
same,% inhibition Apol 40',"DRC-2, concentration 20",54%
same,% inhibition Apol 40',"DRC-2, concentration 40",58%
same,% inhibition Apol 40',"DRC-2, concentration 80",54%
same,% inhibition ApPOL 90',"DRC-2, concentration 2.5",0.827%
same,% inhibition ApPOL 90',"DRC-2, concentration 5",10%
same,% inhibition ApPOL 90',"DRC-2, concentration 10",34%
same,% inhibition ApPOL 90',"DRC-2, concentration 20",54%
same,% inhibition ApPOL 90',"DRC-2, concentration 40",60%
same,% inhibition ApPOL 90',"DRC-2, concentration 80",59%
same,% inhibition apPOL 180',"DRC-2, concentration 2.5",-5%
same,% inhibition apPOL 180',"DRC-2, concentration 5",4.53%
same,% inhibition apPOL 180',"DRC-2, concentration 10",24%
same,% inhibition apPOL 180',"DRC-2, concentration 20",46%
same,% inhibition apPOL 180',"DRC-2, concentration 40",59%
same,% inhibition apPOL 180',"DRC-2, concentration 80",62%
